Test results taken from US10716768B2, “Method for treating abnormal B-amyloid aggregation mediated diseases” (NATIONAL TAIWAN NORMAL UNIVERSITY, priority 2016, dated 2020).

Experiments:
[1] = tested on: Aβ aggregation in Tet-On Aβ-GFP Flp-In 293 cells; assay: Inhibition of abnormal β-amyloid aggregation test (GFP fluorescence, high-content analysis); format: cell-based, human; details: for GFP fluorescence: untreated 100%
Method: GFP fluorescence was used to reflect Aβ aggregation status as Aβ aggregated to cause the fused GFP misfolded, and thus cause the reduction of fluorescence on Aβ-GFP expressing cells. Inhibition of Aβ aggregation may improve GFP misfolding and lead to increased fluorescence on Aβ-GFP expressing cells. […] Then doxycycline (Dox) (2 μg/mL) was added to the cells for 64 hours to induce the Aβ-GFP expression, and GFP fluorescence was assessed by a high-content analysis (HCA) system (ImageXpressMICRO, available from Molecular Devices). The experiment also tested the inhibition effect of Aβ aggregation by curcumin (1-10 μM) and licochalcone A (0.001-100 μM). In the experiment, the amount of fluorescence measured in the untreated group (untreated with compounds) was 100%, and the sample number of each group was n=3.

[2] = tested on: Tet-On Aβ-GFP Flp-In 293 cells; assay: Cytotoxicity of induced cells, propidium iodide staining and flow cytometer; format: cell-based, human; details: induced cells, PI staining, flow cytometer (FIG. 3C)
[3] = tested on: un-induced Tet-On Aβ-GFP Flp-In 293 and SH-SY5Y cells; assay: MTT cytotoxicity test, un-induced cells; format: cell-based, human; details: MTT, 24 hours; range over un-induced Flp-In 293 (FIG. 1A) and SH-SY5Y (FIG. 1B) cells
Method: (§1) This experiment was to test the toxicity of compounds (I-1), (I-2), (I-3), (I-4), and (I-5) to un-induced Tet-On Aβ-GFP Ftp-In 293 and SH-SY5Y cells. Un-induced Tet-On Aβ-GFP Flp-In 293 and SH-SY5Y cells were treated with compounds (I-1), (I-2), (I-3), (I-4), and (I-5) in different concentrations from 0.1 to 100 μM for 24 hours, followed by conducting MTT assay to test the cytotoxicity of the compounds. The experiment also tested the cytotoxicity of licochalcone A (0.1-100 μM) and curcumin (1-10 μM) to the un-induced Tet-On Aβ-GFP Flp-In 293 and SH-SY5Y cells. In the experiment, the relative cellular survival rate of untreated cells was 100%, the half maximal inhibitory concentration (IC50) of each compound was calculated by using interpolation, and the sample number of each group was n=3.

[4] = Cytotoxicity of induced cells, propidium iodide staining and flow cytometer; format: cell-based, human; details: human
[5] = Solubility test in cell culture medium; format: physicochemical; details: plasma or biological fluid, vortex mixing, centrifugation five minutes at 13,000 g, read-out: solubility in cell culture medium (completely soluble up to)
Method: This experiment was to test the solubility of compound (I-1), compound (I-2), compound (I-3), compound (I-4), and compound (I-5) in cell culture medium. After vortex mixing and centrifugation for five minutes at 13,000 g, the compounds were completely soluble in the cell culture medium up to 100 μM.

[6] = MTT cytotoxicity test, un-induced cells; format: cell-based, human; details: human
Method: as §1

[7] = 0.001-1 μM, cell survival rate more than 80%
[8] = 0.001-10 μM, cell survival rate more than 80%

Compound: C=CC(C)(C)c1cc(/C=C/C(=O)c2ccc(O)cc2)c(OC)cc1O [licochalcone A, reference compound]
- GFP fluorescence [1, 7]: 105-115%
- IC50 [2]: 62.3 µM
- IC50 [3]: 47 to 51 µM

Compound: COc1ccc(O)c(/C=C/C(=O)c2ccccc2)c1 [Compound (I-2)]
- GFP fluorescence [1, 7]: 105-112%
- IC50 [4]: 57.5 µM
- solubility [5]: ≥ 100 µM
- IC50 at 24 h [6]: 10 to 51 µM

Compound: O=C(c1ccccc1)c1cc2c(O)cccc2oc1=O [Compound (I-5)]
- GFP fluorescence [1, 8]: 107-125%
- IC50 [4]: 95.1 µM
- solubility [5]: ≥ 100 µM
- IC50 at 24 h [6]: > 100 µM

Compound: COc1cccc(/C=C/C(=O)c2ccc(O)cc2)c1O [Compound (I-4)]
- GFP fluorescence ([1]; 0.01-1 μM, cell survival rate more than 80%): 102-105%
- IC50 [4]: 60.9 µM
- solubility [5]: ≥ 100 µM
- IC50 at 24 h [6]: 45 to 71 µM

Compound: COc1cc(/C=C/C(=O)CC(=O)/C=C/c2ccc(O)c(OC)c2)ccc1O [curcumin, reference compound]
- cell number ([1]; curcumin 2.5 μM and 5 μM): more than 80 % of untreated cells
- GFP fluorescence ([1]; curcumin 2.5 μM and 5 μM): 107-120%
- IC50 at 24 h [6]: > 10 µM

Compound: COc1ccc(C(=O)/C=C/c2cc(Br)ccc2O)cc1 [Compound (I-1)]
- GFP fluorescence ([1]; 0.001-0.1 μM, cell survival rate more than 80%): 103-111%
- IC50 [4]: 47.7 µM
- solubility [5]: ≥ 100 µM
- IC50 at 24 h [6]: 8 to 51 µM

Compound: Cc1ccc(/C=C/C(=O)c2c(O)c3ccccc3oc2=O)cc1 [Compound (I-3)]
- GFP fluorescence [1, 8]: 103-117%
- IC50 [4]: 80.6 µM
- solubility [5]: ≥ 100 µM
- IC50 at 24 h [6]: ≥ 55 µM
